The source of these data is patent US7858617B2, “2-oxy-benzoxazinone derivatives for the treatment of obesity” (Norgine B.V., priority 1999, dated 2010).

What all share (type): biochemical
One test has as its target T1, Porcine trypsin (Sus scrofa, UniProt P00761).
T1 construct: purchased Boehringer
The experiment in a line: Measurement of trypsin activity. Particulars: at 500 nM; read-out: inhibited % of the trypsin activity. As to the method: Measurement of Trypsin Activity
Porcine trypsin (Boehringer) was dissolved at a concentration of 1 mg/ml in 100 mM MOPS (3-[N-Morpholino]propanesulphonic acid) pH 7.3 containing 2 mM CaCl2. Prior to use, the enzyme was diluted 500 times to give a final concentration of 2 μg/ml.
Selected compounds were routinely stored as 5 mM stock solutions dissolved in DMSO (Dimethylsulphoxide) at −20° C. For the assay, aliquots were defrosted and a series of dilutions (×100, ×200, ×1,000, ×2,000, ×10,000, ×20,000 and ×100,000) made in 100 mM MOPS pH 7.3 containing 2 mM CaCl2. The substrate Bz-Phe-Val-Arg-pNA (Benzoyl-phenylalanyl-valyl-arginine-p-nitroanilide) was dissolved in DMSO to give a 10 mM solution. Immediately prior to use, the substrate was diluted to 0.3 mM (30 μl/ml) in 100 mM MOPS containing […].
The assay was set up in triplicate in a 96 well ELISA plate. 10 μl 2 μg/ml trypsin, 26 μl diluted inhibitor and 190 μl substrate were added sequentially. The plates were then incubated at 37° C. in a BioRad Benchmark Microplate Reader. The rate of release of p-nitroaniline was measured at […] over 10 minutes relative to that of the enzyme without inhibitor.

In another test the target is T2, human pancreatic lipase (Homo sapiens, UniProt P16233).
T2 sequence (P16233 17-465): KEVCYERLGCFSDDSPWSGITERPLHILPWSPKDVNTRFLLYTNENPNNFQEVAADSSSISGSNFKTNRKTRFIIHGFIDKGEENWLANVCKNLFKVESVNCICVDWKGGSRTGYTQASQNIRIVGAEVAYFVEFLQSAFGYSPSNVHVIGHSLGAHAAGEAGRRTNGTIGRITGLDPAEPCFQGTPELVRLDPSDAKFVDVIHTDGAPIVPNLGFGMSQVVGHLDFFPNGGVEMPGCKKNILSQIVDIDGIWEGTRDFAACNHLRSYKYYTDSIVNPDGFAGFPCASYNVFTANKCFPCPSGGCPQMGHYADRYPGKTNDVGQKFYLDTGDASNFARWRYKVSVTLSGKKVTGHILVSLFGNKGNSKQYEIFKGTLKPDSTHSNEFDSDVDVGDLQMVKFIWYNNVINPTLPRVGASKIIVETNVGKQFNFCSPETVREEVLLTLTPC
The experiment in a line: Lipase activity, quinine diimine dye calorimetric assay (Sigma Lipase-PS). Particulars: at 500 nM; read-out: inhibited % of the pancreatic lipase activity. The protocol: Measurement of Lipase Activity Using a Quinine Diimine Dye Calorimetric Assay
The inhibitory activity of the selected compounds to pancreatic lipase was measured in the following assay available from Sigma Ltd (Lipase-PS™, catalog number 805-A):
The glycerol released from the action of pancreatic and monoglyceride lipase was oxidised to release H2O2. The peroxidase reaction step then produces a quinine dye which is pink in colour and absorbs light at a wavelength of 550 nm.
Individual test compounds were dissolved in DMSO (dimethyl sulphoxide) at 10 mM. DMSO was used to avoid any problems with compounds being water-insoluble. For individual compounds, the IC50 (concentration at which lipase activity is inhibited to one half of the maximum) was calculated by measuring the inhibitory activity from log-dose response curves using a range of inhibitor concentrations.
A range of compounds was assayed in the quinine diimine dye calorimetric assay which provides a rapid method to measure lipase inhibitory activity.

Another test has as its target T3, Bovine Chymotrypsin (Bos taurus, UniProt P00766).
T3 construct: purchased Sigma C4129
The experiment in a line: Measurement of chymotrypsin activity. Particulars: at 500 nM; read-out: inhibited % of the chymotrypsin activity. The protocol: Measurement of Chymotrypsin Activity
Bovine Chymotrypsin (Sigma Type 11 Cat. No. C4129) was dissolved at a concentration of 1 mg/ml in 100 mM Tris pH 7.8. Prior to use, the enzyme was diluted 20 fold immediately before use, with the same buffer.
Selected compounds were routinely stored as 5 mM stock solutions dissolved in DMSO (Dimethylsulphoxide) at −20° C. For the assay, aliquots were defrosted and a series of dilutions (×20, ×100, ×200, ×1,000, ×2,000, ×10,000, ×20,000 and ×100,000) made in 100 mM Tris pH 7.8. The substrate H-Ala-Ala-Phe-p-nitroanilide (H-alanyl-alanyl-phenylalanine-p-nitroanilide) (Bachem Cat. No. L-1095) was dissolved in DMSO to give a 10 mM stock and stored at 4° C. until use. Immediately prior to use, the substrate was diluted to 0.3 mM final concentration (30 μl/ml) just before use.
The assay was set up in triplicate in a 96 well ELISA plate. 10 μl 50 μg/ml chymotrypsin, 50 μl diluted inhibitor and 190 μl substrate were added sequentially. The plates were then incubated at 37° C. in a BioRad Benchmark Microplate Reader. The rate of release of p-nitroaniline was measured at […] over 10 minutes relative to that of the enzyme without inhibitor.

T1 sequence (P00761 9-231): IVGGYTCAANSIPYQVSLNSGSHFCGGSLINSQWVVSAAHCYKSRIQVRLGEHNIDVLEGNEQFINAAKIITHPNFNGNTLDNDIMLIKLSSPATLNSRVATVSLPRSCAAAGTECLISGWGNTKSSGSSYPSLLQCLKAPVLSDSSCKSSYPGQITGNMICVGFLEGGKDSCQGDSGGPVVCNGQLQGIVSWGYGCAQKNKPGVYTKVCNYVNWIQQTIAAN

For the compound `CCCCCCCCCCCCCCCCOc1nc2ccc(C)cc2c(=O)o1` [Compound 18, 2-Hexadecyloxy-6-methyl-4H-3,1-benzoxazin-4-one], the inhibition at 0.5 µM at Porcine trypsin stood at 4%; on human pancreatic lipase, 98.7%; at Bovine Chymotrypsin, 12.5%.
